Data taken from patent publication US10285959B2, “Combination therapies using HDAC inhibitors” (priority 2005, dated 2019).

What was measured:
[1] = test system: HCT116 colon cancer xenograft; assay: HCT116 colon cancer subcutaneous xenograft model; assay type: in vivo, nu/nu mice
Method: The 5-FU dose was set at 15 mg/kg.
HCT116 colon cancer xenograph. Daily i.p. treatments with PXD101 (morning) and 5-FU (afternoon). Mean/SEM, n=10(9).

[2] = test system: P388 i.p. mouse leukemia tumour; assay: P388 mouse leukemia model, survival;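 further: female B6D1F1 mice implanted i.p. with P388 leukemia cells, Kaplan-Meier survival analysis, ILS% equals treated minus vehicle control median survival, divided by control median, times 100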
Method: P388 mouse leukemia cells were injected intrapertoneally (IP) into B6D1F1 female mice. […] Kaplan-Meier survival distribution graphs are shown for each combination.
The percentage Increased Life Span (ILS%) was calculated as the median survival (treatment group) minus median survival (vehicle control) divided by median survival (vehicle control) multiplied with 100:

[3] = test system: EGFR protein in A431 cells; assay: Western blot of EGFR protein levels; assay type: cell-based, human; settings: 24 hours treatment
Excerpt: The blot was reprobed with an anti-actin antibody to control for lane loading.

[4] = test system: diverse tumor cell lines; assay: Proliferation of tumor cell lines; assay type: cell-based
[5] = test system: Calu-3; assay: Growth inhibition/proliferation, PXD101 with Tarceva (CellTiter-Glo); assay type: cell-based, human; settings: wtEGFR
[6] = test system: HCC-4006; assay: Growth inhibition/proliferation, PXD101 with Tarceva; assay type: cell-based; settings: mutant EGFR
[7] = 5-FU(30) mg/kg/treat i.p. daily for 5 days starting day 3
[8] = PXD101(60) mg/kg/treat i.p. daily for 5 days starting day 3
[9] = PXD101(100) mg/kg/treat i.p. daily for 5 days starting day 3

With `O=c1[nH]cc(F)c(=O)[nH]1` [5-FU, 5-fluorouracil] the tumour growth inhibition ([1]; 5-FU 15 mg/kg) was “ineffective”, the “ILS % (Increased Life Span)” value [2, 7] was 60.0% and the “Survival time, Max” value [2, 7] was 18. For the same compound, the “Survival time, Median survival” value [2, 7] was 16, the “Survival time, Min” value [2, 7] was 15 and the “Cumulative Survival” value ([2]; day 9, 5-FU (30)) was 1. The “Cumulative Survival” value ([2]; day 9, 5-FU (50)) was 1.00, the “Cumulative Survival” value ([2]; day 10, 5-FU (30)) was 1 and the “Cumulative Survival” value ([2]; day 10, 5-FU (50)) was 0.55. The “Cumulative Survival” value ([2]; day 11, 5-FU (30)) was 1, the “Cumulative Survival” value ([2]; day 11, 5-FU (50)) was 0.15 and the “Cumulative Survival” value ([2]; day 12, 5-FU (30)) was 1. For the same compound, the “Cumulative Survival” value ([2]; day 12, 5-FU (50)) was 0.15, the “Cumulative Survival” value ([2]; day 13, 5-FU (30)) was 1 and the “Cumulative Survival” value ([2]; day 13, 5-FU (50)) was 0.15. For the same compound, the “Cumulative Survival” value ([2]; day 14, 5-FU (30)) was 1, the “Cumulative Survival” value ([2]; day 14, 5-FU (50)) was 0.15 and the “Cumulative Survival” value ([2]; day 15, 5-FU (30)) was 0.85. For the same compound, the “Cumulative Survival” value ([2]; day 15, 5-FU (50)) was 0.15, the “Cumulative Survival” value ([2]; day 16, 5-FU (30)) was 0.55 and the “Cumulative Survival” value ([2]; day 16, 5-FU (50)) was 0.15. For the same compound, the “Cumulative Survival” value ([2]; day 17, 5-FU (30)) was 0.15, the “Cumulative Survival” value ([2]; day 17, 5-FU (50)) was 0.15 and the “Cumulative Survival” value ([2]; day 18, 5-FU (30)) was 0. For the same compound, the “Cumulative Survival” value ([2]; day 18, 5-FU (50)) was 0.15, the “Cumulative Survival” value ([2]; day 19, 5-FU (50)) was 0.15 and the “Cumulative Survival” value ([2]; day 20, 5-FU (50)) was 0.15. The “Cumulative Survival” value ([2]; day 21, 5-FU (50)) was 0.15, the “Cumulative Survival” value ([2]; day 22, 5-FU (50)) was 0.15 and the “Cumulative Survival” value ([2]; day 23, 5-FU (50)) was 0.15. For the same compound, the “Cumulative Survival” value ([2]; day 24, 5-FU (50)) was 0.

`Nc1nc(F)nc2c1ncn2[C@@H]1O[C@H](CO)[C@@H](O)[C@@H]1O` [Fludarabin, Fludarabine] was tested, and the “Cumulative Survival” value ([2]; day 8, Fludarabin (50)) was 1.00, the “Cumulative Survival” value ([2]; day 9, Fludarabin (50)) was 0.85 and the “Cumulative Survival” value ([2]; day 10, Fludarabin (50)) was 0.55. For the same compound, the “Cumulative Survival” value ([2]; day 11, Fludarabin (50)) was 0.40, the “Cumulative Survival” value ([2]; day 12, Fludarabin (50)) was 0.40 and the “Cumulative Survival” value ([2]; day 13, Fludarabin (50)) was 0.40. For the same compound, the “Cumulative Survival” value ([2]; day 14, Fludarabin (50)) was 0.40, the “Cumulative Survival” value ([2]; day 15, Fludarabin (50)) was 0.30 and the “Cumulative Survival” value ([2]; day 16, Fludarabin (50)) was 0.30. For the same compound, the “Cumulative Survival” value ([2]; day 17, Fludarabin (50)) was 0.15, the “Cumulative Survival” value ([2]; day 18, Fludarabin (50)) was 0.15 and the “Cumulative Survival” value ([2]; day 19, Fludarabin (50)) was 0.

`O=C1[O][Pt]2([NH][C@@H]3CCCC[C@H]3[NH]2)[O]C1=O` [Oxali, Oxaliplatin] was tested, and the “Cumulative Survival” value ([2]; day 9, Oxali (5)) was 0.45 and the “Cumulative Survival” value ([2]; day 10, Oxali (5)) was 0.

With `O=C(/C=C/c1cccc(S(=O)(=O)Nc2ccccc2)c1)NO` [PXD-101] the tumour growth inhibition ([1]; PXD-101 60 and 100 mg/kg q1d x5/week for 2 weeks) was “significant tumour growth inhibition”, the “level of EGFR protein” value [3] was “apparently decreases the level of EGFR protein” and the IC50 [4] was 80 to 2430 nM. The “ILS % (Increased Life Span)” value [2, 8] was 30.0%, the “Survival time, Max” value [2, 8] was 14 and the “Survival time, Median survival” value [2, 8] was 13. For the same compound, the “Survival time, Min” value [2, 8] was 12, the “ILS % (Increased Life Span)” value [2, 9] was 20.0% and the “Survival time, Max” value [2, 9] was 14. The “Survival time, Median survival” value [2, 9] was 12, the “Survival time, Min” value [2, 9] was 11 and the “Cumulative Survival” value ([2]; day 9, PXD101 (60)) was 1. The “Cumulative Survival” value ([2]; day 9, PXD101 (100)) was 1, the “Cumulative Survival” value ([2]; day 10, PXD101 (60)) was 1 and the “Cumulative Survival” value ([2]; day 10, PXD101 (100)) was 1. For the same compound, the “Cumulative Survival” value ([2]; day 11, PXD101 (60)) was 1, the “Cumulative Survival” value ([2]; day 11, PXD101 (100)) was 0.85 and the “Cumulative Survival” value ([2]; day 12, PXD101 (60)) was 0.70. For the same compound, the “Cumulative Survival” value ([2]; day 12, PXD101 (100)) was 0.43, the “Cumulative Survival” value ([2]; day 13, PXD101 (60)) was 0.15 and the “Cumulative Survival” value ([2]; day 13, PXD101 (100)) was 0.43. The “Cumulative Survival” value ([2]; day 14, PXD101 (60)) was 0, the “Cumulative Survival” value ([2]; day 14, PXD101 (100)) was 0.15 and the “Cumulative Survival” value ([2]; day 15, PXD101 (100)) was 0.

`C#Cc1cccc(Nc2ncnc3cc(OCCOC)c(OCCOC)cc23)c1` [Tarceva ®] was tested, and the “responsiveness of cells to Tarceva” value [5] was “Calu-3 (wtEGFR; moderately responsive to Tarceva ®)” and the “responsiveness of cells to Tarceva” value [6] was “HCC-4006 (mutant EGFR; strongly responsive to Tarceva ®)”.
